The kinase profiling compilation of Christmann-Franck et al. (2016)

Assays:
Assay in all cases: Caliper, Mobility shift assay off-chip
NIM1 (human) = NIM1 (human) (UniProt Q8IY84)
LCK (human) = LCK (human) (UniProt P06239)
EGFR (human) = EGFR (human) (UniProt P00533)
ABL1 (human) = ABL1 (human) (UniProt P00519)
FGFR1 (human) = FGFR1 (human) (UniProt P11362)
FGFR1 (human), sequence (P11362 whole entry, looked up): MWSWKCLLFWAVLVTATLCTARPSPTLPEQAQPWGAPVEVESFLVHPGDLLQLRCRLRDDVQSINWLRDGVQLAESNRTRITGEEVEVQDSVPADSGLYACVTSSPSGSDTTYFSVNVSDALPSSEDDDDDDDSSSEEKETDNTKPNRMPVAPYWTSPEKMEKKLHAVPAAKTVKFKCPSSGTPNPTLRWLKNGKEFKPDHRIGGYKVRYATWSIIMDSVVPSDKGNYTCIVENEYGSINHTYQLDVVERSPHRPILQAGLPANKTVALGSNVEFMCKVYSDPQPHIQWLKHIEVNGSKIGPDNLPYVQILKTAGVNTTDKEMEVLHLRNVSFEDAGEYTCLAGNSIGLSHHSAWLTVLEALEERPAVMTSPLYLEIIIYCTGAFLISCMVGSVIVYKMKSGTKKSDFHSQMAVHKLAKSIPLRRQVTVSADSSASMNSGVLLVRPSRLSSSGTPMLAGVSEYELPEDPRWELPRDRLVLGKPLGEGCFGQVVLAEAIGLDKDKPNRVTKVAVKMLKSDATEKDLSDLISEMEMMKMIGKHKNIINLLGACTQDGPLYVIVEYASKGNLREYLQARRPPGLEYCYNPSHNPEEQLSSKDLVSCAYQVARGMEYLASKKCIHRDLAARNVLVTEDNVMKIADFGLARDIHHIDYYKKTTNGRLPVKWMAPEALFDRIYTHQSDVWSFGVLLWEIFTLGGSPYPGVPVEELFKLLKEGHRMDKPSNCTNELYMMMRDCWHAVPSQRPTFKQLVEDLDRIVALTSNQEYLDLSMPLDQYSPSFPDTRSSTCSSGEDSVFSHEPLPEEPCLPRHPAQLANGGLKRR

LCK (human), sequence (P06239 whole entry, looked up): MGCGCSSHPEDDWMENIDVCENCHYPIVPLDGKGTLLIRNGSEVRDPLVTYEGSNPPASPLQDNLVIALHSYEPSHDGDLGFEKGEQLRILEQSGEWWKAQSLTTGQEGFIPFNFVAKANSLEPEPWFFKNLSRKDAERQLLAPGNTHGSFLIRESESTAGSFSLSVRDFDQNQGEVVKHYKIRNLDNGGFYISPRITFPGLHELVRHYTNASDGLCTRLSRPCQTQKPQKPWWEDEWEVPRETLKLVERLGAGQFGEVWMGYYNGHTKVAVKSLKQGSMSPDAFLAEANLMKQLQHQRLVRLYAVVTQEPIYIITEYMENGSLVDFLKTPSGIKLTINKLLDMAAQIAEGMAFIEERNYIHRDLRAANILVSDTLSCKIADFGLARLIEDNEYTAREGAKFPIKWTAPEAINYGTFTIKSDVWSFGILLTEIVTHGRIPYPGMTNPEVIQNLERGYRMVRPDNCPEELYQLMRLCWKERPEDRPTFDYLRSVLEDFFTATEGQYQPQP
NIM1 (human), sequence (Q8IY84 whole entry, looked up): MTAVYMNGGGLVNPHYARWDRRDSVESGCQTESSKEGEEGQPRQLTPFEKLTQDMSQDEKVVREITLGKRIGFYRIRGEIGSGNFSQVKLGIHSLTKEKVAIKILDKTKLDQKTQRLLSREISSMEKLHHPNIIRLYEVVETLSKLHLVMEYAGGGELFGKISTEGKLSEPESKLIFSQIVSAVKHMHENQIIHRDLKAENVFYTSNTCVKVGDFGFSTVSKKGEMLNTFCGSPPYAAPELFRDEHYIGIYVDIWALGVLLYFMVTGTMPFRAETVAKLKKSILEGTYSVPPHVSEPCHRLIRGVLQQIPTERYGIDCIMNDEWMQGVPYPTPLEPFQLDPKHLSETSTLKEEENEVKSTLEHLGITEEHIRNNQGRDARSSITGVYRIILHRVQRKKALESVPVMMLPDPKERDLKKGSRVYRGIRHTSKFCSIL
EGFR (human), sequence (P00533 whole entry, looked up): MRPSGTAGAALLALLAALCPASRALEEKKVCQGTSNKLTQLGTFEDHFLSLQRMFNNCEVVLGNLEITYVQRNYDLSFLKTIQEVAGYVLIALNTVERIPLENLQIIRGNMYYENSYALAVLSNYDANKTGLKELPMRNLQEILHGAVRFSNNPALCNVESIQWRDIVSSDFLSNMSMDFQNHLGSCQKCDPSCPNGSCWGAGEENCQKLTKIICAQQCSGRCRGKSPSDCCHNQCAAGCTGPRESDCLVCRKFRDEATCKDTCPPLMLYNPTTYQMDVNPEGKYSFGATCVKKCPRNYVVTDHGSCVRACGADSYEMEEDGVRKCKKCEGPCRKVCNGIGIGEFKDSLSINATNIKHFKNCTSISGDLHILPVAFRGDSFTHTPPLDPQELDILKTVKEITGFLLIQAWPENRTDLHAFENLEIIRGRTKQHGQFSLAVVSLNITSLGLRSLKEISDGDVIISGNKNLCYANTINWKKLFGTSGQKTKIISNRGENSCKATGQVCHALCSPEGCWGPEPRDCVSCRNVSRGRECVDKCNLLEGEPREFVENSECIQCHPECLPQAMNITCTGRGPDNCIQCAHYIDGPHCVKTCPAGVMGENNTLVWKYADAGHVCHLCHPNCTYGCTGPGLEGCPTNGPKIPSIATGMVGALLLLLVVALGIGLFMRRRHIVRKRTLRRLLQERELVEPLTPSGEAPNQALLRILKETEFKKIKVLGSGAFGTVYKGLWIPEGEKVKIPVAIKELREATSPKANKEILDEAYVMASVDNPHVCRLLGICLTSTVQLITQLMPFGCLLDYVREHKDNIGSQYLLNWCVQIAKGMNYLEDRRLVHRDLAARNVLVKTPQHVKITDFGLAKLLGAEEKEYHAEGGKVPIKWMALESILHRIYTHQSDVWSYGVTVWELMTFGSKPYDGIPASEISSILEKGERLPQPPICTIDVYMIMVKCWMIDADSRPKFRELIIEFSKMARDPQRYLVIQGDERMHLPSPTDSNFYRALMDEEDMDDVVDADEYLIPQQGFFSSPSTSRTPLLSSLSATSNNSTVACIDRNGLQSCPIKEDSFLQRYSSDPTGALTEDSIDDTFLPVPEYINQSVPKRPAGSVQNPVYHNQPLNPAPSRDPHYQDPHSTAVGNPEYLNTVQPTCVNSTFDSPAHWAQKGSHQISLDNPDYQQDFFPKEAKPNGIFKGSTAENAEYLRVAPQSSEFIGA
ABL1 (human), sequence (P00519 whole entry, looked up): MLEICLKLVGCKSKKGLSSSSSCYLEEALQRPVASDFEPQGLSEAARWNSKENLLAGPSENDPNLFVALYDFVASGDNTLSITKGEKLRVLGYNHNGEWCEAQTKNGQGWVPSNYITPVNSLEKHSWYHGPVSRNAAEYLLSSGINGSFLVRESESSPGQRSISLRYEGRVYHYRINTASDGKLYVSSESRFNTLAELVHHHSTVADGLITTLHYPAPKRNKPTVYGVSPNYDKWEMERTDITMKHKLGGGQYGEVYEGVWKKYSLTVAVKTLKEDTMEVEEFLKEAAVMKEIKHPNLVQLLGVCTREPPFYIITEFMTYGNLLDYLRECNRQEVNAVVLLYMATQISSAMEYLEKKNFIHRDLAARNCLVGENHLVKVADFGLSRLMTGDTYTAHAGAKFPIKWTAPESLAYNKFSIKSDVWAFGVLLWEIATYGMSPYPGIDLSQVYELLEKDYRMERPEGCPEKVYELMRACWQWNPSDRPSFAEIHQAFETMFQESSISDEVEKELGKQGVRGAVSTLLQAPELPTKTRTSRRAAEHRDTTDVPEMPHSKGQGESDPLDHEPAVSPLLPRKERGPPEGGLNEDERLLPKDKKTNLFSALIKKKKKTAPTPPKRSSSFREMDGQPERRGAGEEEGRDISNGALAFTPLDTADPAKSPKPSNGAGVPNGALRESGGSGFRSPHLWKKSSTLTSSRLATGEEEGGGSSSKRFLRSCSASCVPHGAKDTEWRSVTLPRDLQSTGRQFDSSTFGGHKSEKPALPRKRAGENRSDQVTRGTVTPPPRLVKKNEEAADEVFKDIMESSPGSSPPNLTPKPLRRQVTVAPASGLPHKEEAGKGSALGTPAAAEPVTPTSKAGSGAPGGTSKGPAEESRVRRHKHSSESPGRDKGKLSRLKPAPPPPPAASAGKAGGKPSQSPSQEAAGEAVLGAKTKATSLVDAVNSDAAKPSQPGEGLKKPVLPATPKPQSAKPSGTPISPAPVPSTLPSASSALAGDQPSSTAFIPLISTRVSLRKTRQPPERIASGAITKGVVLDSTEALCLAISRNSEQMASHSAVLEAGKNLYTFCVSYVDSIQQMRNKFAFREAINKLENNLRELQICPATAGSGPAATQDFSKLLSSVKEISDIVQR

inhibition (NIM1 (human); compound 0.001 µM)	inhibition (NIM1 (human); compound 0.02 µM)	inhibition (LCK (human); compound 0.02 µM)	inhibition (LCK (human); compound 0.2 µM)	inhibition (EGFR (human); compound 0.2 µM)	inhibition (NIM1 (human); compound 0.2 µM)	inhibition (ABL1 (human); compound 0.02 µM)	inhibition (ABL1 (human); compound 0.2 µM)	inhibition (EGFR (human); compound 0.02 µM)	inhibition (FGFR1 (human); compound 0.02 µM)	inhibition (FGFR1 (human); compound 0.2 µM)	inhibition (NIM1 (human); compound 4.0 µM)	inhibition (FGFR1 (human); compound 4.0 µM)	SMILES
13.8%	-10.4%												CNC(=O)c1ccccc1Sc1ccc2c(/C=C/c3ccccn3)n[nH]c2c1
	-11.7%	7%	44.1%	-1.3%	10.4%								Cc1ccc(Nc2nccc(N(C)c3ccc4c(C)n(C)nc4c3)n2)cc1S(N)(=O)=O
	15.8%	23%	72.7%	78.4%	-9.8%	24.1%	58.9%	30.6%	52.9%	91.2%			COc1cc2c(Oc3ccc4[nH]c(C)cc4c3F)ncnc2cc1OCCCN1CCCC1
					17.9%					52.9%	67.1%	96.2%	CCN(CC)CCNC(=O)c1c(C)[nH]c(/C=C2\C(=O)Nc3ccc(F)cc32)c1C
	-3.6%				6.4%				5.3%	49.9%			CNC(=O)c1cc(Oc2ccc(NC(=O)Nc3ccc(Cl)c(C(F)(F)F)c3)cc2)ccn1
